Assay results taken from EPA's ToxRefDB 2.

Legend:
rat [1] = details: Prenatal developmental toxicity study, sprague dawley, Oral, Gavage/Intubation, dose end: 15 GD
rat [2] = details: Prenatal developmental toxicity study, fischer, Oral, Gavage/Intubation, dose end: 15 GD
rat [3] = details: Multigenerational reproductive toxicity study, sprague dawley, Oral, Gavage/Intubation, dose end: 2 generation
mouse [4] = details: Prenatal developmental toxicity study, cd1, Oral, Gavage/Intubation, dose end: 15 GD
rat [5] = details: Multigenerational reproductive toxicity study, sprague dawley, Oral, Gavage/Intubation, dose end: 2 generation; remark: listed apart in the source
mouse [6] = details: Carcinogenicity, cd1, Oral, Feed, dose end: 78 week
rat [7] = details: Multigenerational reproductive toxicity study, sprague dawley, Oral, Feed, dose end: 2 generation
rat [8] = details: Subchronic oral toxicity in rodents, fischer, Feed, dose end: 13 week
rat [9] = details: Combined chronic toxicity/carcinogenicity, fischer, Oral, Feed, dose end: 24 month
rat [10] = details: Multigenerational reproductive toxicity study, sprague dawley, Oral, Feed, dose end: 2 generation; remark: listed apart in the source
dog = details: Subchronic oral toxicity in nonrodent, beagle, Feed, dose end: 13 week
[11] = group: developmental, systemic / in life observation / body weight / fetal weight
[12] = group: maternal, systemic / organ weight / placenta / absolute
[13] = group: maternal, reproductive / reproductive performance / resorptions / resorptions + systemic / in life observation / body weight / body weight + systemic…
[14] = group: maternal, systemic / in life observation / clinical signs / hunched posture + systemic / in life observation / clinical signs / lacrimation + systemic…
[15] = group: offspring, developmental / offspring survival late / viability index / viability index + systemic / in life observation / body weight / offspring (pup…
[16] = group: offspring, systemic / in life observation / body weight / offspring (pup) weight
[17] = group: parental, systemic / in life observation / clinical signs / reduced activity
[18] = group: parental, systemic / in life observation / clinical signs / reduced activity + systemic / organ weight / adrenal gland / relative to body weight + …
[19] = group: reproductive, reproductive / offspring survival early / litter size / litter size + reproductive / offspring survival early / live fetuses / live fetuses
[20] = group: reproductive, reproductive / reproductive performance / gestational length / gestational length + reproductive / reproductive performance / pregnancy …
[21] = group: developmental, developmental / developmental malformation / general / [other] + systemic / in life observation / body weight / fetal weight
[22] = group: offspring, systemic / in life observation / body weight / offspring (pup) weight + systemic / in life observation / body weight / offspring (pup) …
[23] = group: parental, systemic / in life observation / body weight / body weight gain + systemic / in life observation / clinical signs / [other] + systemic / in …
[24] = group: parental, systemic / in life observation / clinical signs / reduced activity + systemic / in life observation / body weight / body weight gain + …
[25] = group: reproductive, reproductive / reproductive performance / estrous cycle / length + reproductive / reproductive performance / pregnancy index / pregnancy …
[26] = group: cholinesterase, cholinesterase / cholinesterase / cholinesterase / brain cholinesterase (che) + cholinesterase / cholinesterase / cholinesterase / …
[27] = group: systemic, systemic / urinalysis / protein / protein
[28] = group: cholinesterase, cholinesterase / cholinesterase / cholinesterase / erythrocyte cholinesterase (che) + cholinesterase / cholinesterase / cholinesterase / …
[29] = group: offspring, developmental / offspring survival late / lactation index / lactation index + systemic / in life observation / body weight / offspring (pup…
[30] = group: parental, systemic / pathology microscopic / adrenal gland / [other] + systemic / pathology microscopic / adrenal gland / vacuolization + systemic / …
[31] = group: cholinesterase, cholinesterase / cholinesterase / cholinesterase / plasma cholinesterase (che)
[32] = group: systemic, systemic / hematology / platelet / platelet + systemic / organ weight / adrenal gland / absolute + systemic / organ weight / testes / …
[33] = group: systemic, systemic / pathology microscopic / adrenal gland / hypertrophy + systemic / pathology microscopic / adrenal gland / necrosis + systemic / …
[34] = group: cholinesterase, cholinesterase / cholinesterase / cholinesterase / erythrocyte cholinesterase (che)
[35] = group: systemic, systemic / pathology microscopic / pituitary gland / adenoma + systemic / pathology microscopic / uterus / polyp stromal + systemic / …
[36] = group: offspring, systemic / organ weight / spleen / absolute + systemic / organ weight / spleen / relative to body weight
[37] = group: parental, systemic / pathology microscopic / adrenal gland / vacuolization cytoplasmic + systemic / organ weight / adrenal gland / absolute + systemic…
[38] = group: cholinesterase, cholinesterase / cholinesterase / cholinesterase / plasma cholinesterase (che) + cholinesterase / cholinesterase / cholinesterase / …
[39] = group: systemic, systemic / clinical chemistry / albumin / albumin + systemic / clinical chemistry / alkaline phosphatase (alp/alk) / alkaline phosphatase (…

O=C1CCCO1 [4-Butyrolactone]
LEL (rat [1]; [11]): 50 mg/kg/day
LOAEL (rat [1]; [11]): > 500 mg/kg/day
NEL (rat [1]; [11]): 10 mg/kg/day
NOAEL (rat [1]; [11]): ≥ 500 mg/kg/day
LEL (rat [1]; [12]): 10 mg/kg/day
LOAEL (rat [1]; [12]): > 500 mg/kg/day
NEL (rat [1]; [12]): < 10 mg/kg/day
NOAEL (rat [1]; [12]): ≥ 500 mg/kg/day

CN(C)CCCN1c2ccccc2Sc2ccc(Cl)cc21.Cl [Chlorpromazine hydrochloride]
LEL (rat [2]; [11]): 5 mg/kg/day
LOAEL (rat [2]; [11]): > 45 mg/kg/day
NEL (rat [2]; [11]): < 5 mg/kg/day
NOAEL (rat [2]; [11]): ≥ 45 mg/kg/day
LOAEL (rat [2]; [13]): > 45 mg/kg/day
NOAEL (rat [2]; [13]): ≥ 45 mg/kg/day
LEL (rat [2]; [14]): 5 mg/kg/day
NEL (rat [2]; [14]): < 5 mg/kg/day
LOAEL (rat [3]; [15]): > 100 mg/kg/day
NOAEL (rat [3]; [15]): ≥ 100 mg/kg/day
LEL (rat [3]; [16]): 12.5 mg/kg/day
NEL (rat [3]; [16]): < 12.5 mg/kg/day
LEL (rat [3]; [17]): 12.5 mg/kg/day
NEL (rat [3]; [17]): < 12.5 mg/kg/day
LOAEL (rat [3]; [18]): > 100 mg/kg/day
NOAEL (rat [3]; [18]): ≥ 100 mg/kg/day
LEL (rat [3]; [19]): 12.5 mg/kg/day
NEL (rat [3]; [19]): < 12.5 mg/kg/day
LOAEL (rat [3]; [20]): > 100 mg/kg/day
NOAEL (rat [3]; [20]): ≥ 100 mg/kg/day
LOAEL (mouse [4]; [21]): > 30 mg/kg/day
NEL (mouse [4]; [21]): 5 mg/kg/day
NOAEL (mouse [4]; [21]): ≥ 30 mg/kg/day
LEL (mouse [4]; [11]): 15 mg/kg/day
LOAEL (mouse [4]; [13]): > 30 mg/kg/day
NEL (mouse [4]; [13]): 5 mg/kg/day
NOAEL (mouse [4]; [13]): ≥ 30 mg/kg/day
LEL (mouse [4]; group: maternal, systemic / in life observation / body weight / body weight + systemic / in life observation / body weight / body weight gain): 15 mg/kg/day
LOAEL (rat [5]; [15]): > 100 mg/kg/day
NOAEL (rat [5]; [15]): ≥ 100 mg/kg/day
LEL (rat [5]; [22]): 12.5 mg/kg/day
NEL (rat [5]; [22]): < 12.5 mg/kg/day
LOAEL (rat [5]; [23]): > 100 mg/kg/day
NOAEL (rat [5]; [23]): ≥ 100 mg/kg/day
LEL (rat [5]; [24]): 12.5 mg/kg/day
NEL (rat [5]; [24]): < 12.5 mg/kg/day
LEL (rat [5]; group: reproductive, reproductive / reproductive performance / estrous cycle / length): 25 mg/kg/day
LOAEL (rat [5]; [25]): > 100 mg/kg/day
NEL (rat [5]; [25]): 12.5 mg/kg/day
NOAEL (rat [5]; [25]): ≥ 100 mg/kg/day

COP(=S)(OC)Oc1nc(Cl)c(Cl)cc1Cl [Chlorpyrifos-methyl]
LEL (mouse [6]; [26]): 3.94 mg/kg/day
LOAEL (mouse [6]; [26]): 3.94 mg/kg/day
NEL (mouse [6]; [26]): 0.403 mg/kg/day
NOAEL (mouse [6]; [26]): 0.403 mg/kg/day
LOAEL (mouse [6]; group: systemic, systemic / pathology microscopic / liver / fatty change): 41.5 mg/kg/day
NOAEL (mouse [6]; group: systemic, systemic / pathology microscopic / liver / fatty change + systemic / clinical chemistry / alkaline phosphatase (alp/alk) / alkaline …): 3.94 mg/kg/day
LEL (mouse [6]; [27]): 0.0816 mg/kg/day
NEL (mouse [6]; [27]): < 0.0816 mg/kg/day
LEL (rat [7]; [28]): 1 mg/kg/day
LOAEL (rat [7]; [28]): 1 mg/kg/day
NEL (rat [7]; [28]): 0.1 mg/kg/day
NOAEL (rat [7]; [28]): 0.1 mg/kg/day
LEL (rat [7]; [29]): 5 mg/kg/day
LOAEL (rat [7]; [29]): 5 mg/kg/day
NEL (rat [7]; [29]): 1 mg/kg/day
NOAEL (rat [7]; [29]): 1 mg/kg/day
NEL (rat [7]; group: parental, systemic / pathology microscopic / adrenal gland / [other] + systemic / pathology microscopic / adrenal gland / vacuolization): 1 mg/kg/day
LEL (rat [7]; [30]): 5 mg/kg/day
LOAEL (rat [7]; [30]): > 5 mg/kg/day
NOAEL (rat [7]; [30]): ≥ 5 mg/kg/day
LEL (rat [8]; [31]): 0.1 mg/kg/day
LOAEL (rat [8]; [31]): 0.1 mg/kg/day
NEL (rat [8]; [31]): < 0.1 mg/kg/day
NOAEL (rat [8]; [31]): < 0.1 mg/kg/day
LEL (rat [8]; [32]): 0.1 mg/kg/day
NEL (rat [8]; [32]): < 0.1 mg/kg/day
LOAEL (rat [8]; [33]): 10 mg/kg/day
NOAEL (rat [8]; [33]): 1 mg/kg/day
LEL (rat [9]; [34]): 0.1 mg/kg/day
LOAEL (rat [9]; [28]): 1 mg/kg/day
NEL (rat [9]; [28]): 0.05 mg/kg/day
NOAEL (rat [9]; [28]): 0.1 mg/kg/day
LEL (rat [9]; group: systemic, systemic / pathology microscopic / pituitary gland / adenoma): 0.1 mg/kg/day
LOAEL (rat [9]; group: systemic, systemic / pathology microscopic / pituitary gland / adenoma + systemic / pathology microscopic / adrenal gland / vacuolization): 1 mg/kg/day
NEL (rat [9]; [35]): 0.05 mg/kg/day
NOAEL (rat [9]; [35]): 0.1 mg/kg/day
LEL (rat [10]; [34]): 1 mg/kg/day
LOAEL (rat [10]; [34]): 1 mg/kg/day
NEL (rat [10]; [34]): < 1 mg/kg/day
NOAEL (rat [10]; [34]): < 1 mg/kg/day
LEL (rat [10]; [36]): 10 mg/kg/day
LOAEL (rat [10]; [36]): > 10 mg/kg/day
NEL (rat [10]; [36]): 3 mg/kg/day
NOAEL (rat [10]; [36]): ≥ 10 mg/kg/day
LOAEL (rat [10]; group: parental, systemic / pathology microscopic / adrenal gland / vacuolization cytoplasmic): 3 mg/kg/day
LEL (rat [10]; [37]): 3 mg/kg/day
NEL (rat [10]; [37]): 1 mg/kg/day
NOAEL (rat [10]; [37]): 1 mg/kg/day
LEL (dog; [31]): 0.1 mg/kg/day
NEL (dog; [31]): < 0.1 mg/kg/day
LOAEL (dog; [38]): 10 mg/kg/day
NOAEL (dog; [38]): 0.1 mg/kg/day
LEL (dog; [39]): 50 mg/kg/day
LOAEL (dog; [39]): 50 mg/kg/day
NEL (dog; [39]): 10 mg/kg/day
NOAEL (dog; [39]): 10 mg/kg/day
